Literature values, collected in patent US20040259899A1, “Combination therapy for constipation” (priority 2003, published 2004).

Details: white crystalline powder as provided (Mallinckrodt Pharmaceuticals)

C[N@+]1(CC2CC2)CC[C@]23c4c5ccc(O)c4O[C@H]2C(=O)CC[C@@]3(O)[C@H]1C5 [Methylnaltrexone, N-cyclopropylmethylnoroxy-morphine-methobromide]
solubility in water: freely soluble
